Consider 2 substances from patent US6407204B1 (priority 1997, dated 2002).

For data set [1], the system named is Male Sprague-Dawley rats. To be noted: rat, in vivo.
The subject of data set [2] is Male Sprague-Dawley rats. The note with it: rat, in vivo. This is another data set of the same source.

In the case of “Gly-Glu-Gla-Gla-Val-Ala-Lys-Met-Ala-Ala-Glu-Leu-Ala-Arg-Glu-Asn-Ile-Ala-Lys-Gly-Cys-Lys-Val-Asn-Cys-Tyr-Pro [Conantokin R]”, in the data set with Male Sprague-Dawley rats [1], the “dose required to induce analgesic effects in both acute and tonic pain portions” value is “more than 3.3 μg”; the “effect of the single agent alone” value is “no effect”. For the same substance, in the data set with Male Sprague-Dawley rats [2], the “rats showing signs of incoordination” value is listed as “One of six rats”.

As for “Gly-Glu-Gla-Gla-Leu-Gln-Gla-Asn-Gln-Gla-Leu-Ile-Arg-Gla-Lys-Ser-Asn-NH2 [Conantokin G]”, in the data set with Male Sprague-Dawley rats [1], the “ED50 in phase II” value was 0.15 µg, the “analgesic doses in the formalin test” value fell in the range of 0.05 to 1 µg, the “effect on phase I flinches” value was “without significantly decreasing” and the “effect on phase II flinches” value is recorded as “nearly abolished”. Moreover, in the data set with Male Sprague-Dawley rats [1], the “potency in phase II (tonic pain) versus phase I (acute pain)” value is “very potent”. Further, the “overt signs of toxicity” value with Male Sprague-Dawley rats [2] is recorded as “no overt signs of toxicity”.
